# According to ChEMBL document CHEMBL3259619, “Antibacterial activity of a series of N2,N4-disubstituted quinazoline-2,4-diamines” (J Med Chem, 2014):
# The source made the active and inactive calls. Unless noted, no cut-off for these calls is given here.
# Columns and labels:
# Staphylococcus aureus [1] = assay: Antimicrobial activity against methicillin-resistant Staphylococcus aureus CBD-635 assessed as zone of inhibition at 5 mg/ml after 24 hrs by disk diffusion assay; type: functional; settings: CBD-635, 24 h, read-out: IZ
# Staphylococcus aureus [2] = assay: Antimicrobial activity against methicillin-resistant Staphylococcus aureus CBD-635 assessed as complete inhibition of bacterial growth after overnight incubation; type: functional
# Staphylococcus aureus [3] = assay: Bactericidal activity against methicillin-resistant Staphylococcus aureus CBD-635 assessed as bacterial killing; type: functional
# [4] = Cytotoxicity against human A549 cells assessed as cell viability recovery up to 459 uM by MTT assay relative to untreated control; type: cell-based; settings: read-out: Activity
# [5] = Cytotoxicity against human A549 cells assessed as cell viability recovery at up to 9.2 uM by MTT assay relative to untreated control; type: cell-based; settings: read-out: Activity
# [6] = Cytotoxicity against human A549 cells assessed as cell viability recovery at 36.7 to 459 uM by MTT assay relative to untreated control; type: cell-based; settings: read-out: Activity
# Staphylococcus aureus [7] = assay: Antimicrobial activity against methicillin-resistant Staphylococcus aureus CBD-635 assessed as complete inhibition of bacterial growth at 5 times MIC after overnight incubation in presence of tetrahydrofolic acid; type: functional, organism-based
# [8] = Aqueous solubility of the compound at pH 7.4 after 18 hrs incubation by HPLC; type: physicochemical
# [9] = Aqueous solubility of the compound at pH 2 after 18 hrs incubation by HPLC; type: physicochemical
# [10] = Lipophilicity, log D of the compound at pH 7.4; type: physicochemical; settings: buffer
# [11] = Lipophilicity, log D of the compound at pH 3; type: physicochemical; settings: buffer
# [12] = Cytotoxicity against human A549 cells assessed as cell viability recovery up to 440 uM by MTT assay relative to untreated control; type: cell-based; settings: read-out: Activity
# [13] = Cytotoxicity against human A549 cells assessed as cell viability recovery at 1.8 to 8.8 uM by MTT assay relative to untreated control; type: cell-based; settings: read-out: Activity
# [14] = Cytotoxicity against human A549 cells assessed as cell viability recovery at 18 uM by MTT assay relative to untreated control; type: cell-based; settings: read-out: Activity
# [15] = Cytotoxicity against human A549 cells assessed as cell viability recovery at 440 uM by MTT assay relative to untreated control; type: cell-based; settings: read-out: Activity
# Staphylococcus aureus [16] = assay: Antimicrobial activity against trimethoprim-resistant Staphylococcus aureus assessed as complete inhibition of bacterial growth after 24 hrs; type: functional, organism-based
# Staphylococcus aureus [17] = assay: Antimicrobial activity against quinazoline-resistant Staphylococcus aureus assessed as complete inhibition of bacterial growth after 24 hrs; type: functional, organism-based
# Staphylococcus aureus [18] = assay: Antimicrobial activity against wild type Staphylococcus aureus in presence of sulfamethoxazole; type: functional
# Staphylococcus aureus [19] = assay: Antimicrobial activity against Staphylococcus aureus infected Galleria mellonella assessed as increase in larvae survival at 5 times MIC; type: functional
# Staphylococcus aureus [20] = assay: Antimicrobial activity against Staphylococcus aureus infected Galleria mellonella assessed as increase in larvae survival at 10 times MIC; type: functional
# [21] = pampa, pH 7.4
# [22] = pampa, pH 4
# [23] = Cytotoxicity against human A549 cells assessed as cell viability recovery up to 367 uM by MTT assay relative to untreated control; type: cell-based; settings: read-out: Activity
# [24] = Cytotoxicity against human A549 cells assessed as cell viability recovery at 1.5 uM by MTT assay relative to untreated control; type: cell-based; settings: read-out: Activity
# [25] = Cytotoxicity against human A549 cells assessed as cell viability recovery at 370 uM by MTT assay relative to untreated control; type: cell-based; settings: read-out: Activity
# Staphylococcus aureus [26] = assay: Antimicrobial activity against N2,N4-dibenzylquinazoline-2,4-diamine-induced methicillin-resistant Staphylococcus aureus CBD-635 mutant assessed as complete inhibition of bacterial growth after overnight incubation; type: functional
# Staphylococcus aureus [27] = assay: Antimicrobial activity against N2,N4-dibenzylquinazoline-2,4-diamine-induced methicillin-resistant Staphylococcus aureus CBD-635 mutant M1 assessed as complete inhibition of bacterial growth after overnight incubation; type: functional
# Staphylococcus aureus [28] = assay: Antimicrobial activity against N2,N4-dibenzylquinazoline-2,4-diamine-induced methicillin-resistant Staphylococcus aureus CBD-635 mutant M2 assessed as complete inhibition of bacterial growth after overnight incubation; type: functional
# Staphylococcus aureus [29] = assay: Antimicrobial activity against N2,N4-dibenzylquinazoline-2,4-diamine-induced methicillin-resistant Staphylococcus aureus CBD-635 mutant M3 assessed as complete inhibition of bacterial growth after overnight incubation; type: functional
# Staphylococcus aureus [30] = assay: Antimicrobial activity against N2,N4-dibenzylquinazoline-2,4-diamine-induced methicillin-resistant Staphylococcus aureus CBD-635 mutant M4 assessed as complete inhibition of bacterial growth after overnight incubation; type: functional
# Staphylococcus aureus [31] = assay: Antimicrobial activity against N2,N4-dibenzylquinazoline-2,4-diamine-induced methicillin-resistant Staphylococcus aureus CBD-635 mutant M5 assessed as complete inhibition of bacterial growth after overnight incubation; type: functional
# Staphylococcus aureus [32] = assay: Antimicrobial activity against N2,N4-dibenzylquinazoline-2,4-diamine-induced methicillin-resistant Staphylococcus aureus CBD-635 mutant M6 assessed as complete inhibition of bacterial growth after overnight incubation; type: functional
# Staphylococcus aureus [33] = assay: Antimicrobial activity against N2,N4-dibenzylquinazoline-2,4-diamine-induced methicillin-resistant Staphylococcus aureus CBD-635 mutant M7 assessed as complete inhibition of bacterial growth after overnight incubation; type: functional
# Staphylococcus aureus [34] = assay: Antimicrobial activity against Staphylococcus aureus infected in mouse assessed as increase in mouse survival at 5 times MIC via tail vein relative to untreated control; type: functional
# Staphylococcus aureus [35] = assay: Antimicrobial activity against Staphylococcus aureus infected in mouse assessed as increase in mouse survival at 10 times MIC via tail vein relative to untreated control; type: functional, organism-based
# Staphylococcus aureus [36] = assay: Antimicrobial activity against methicillin-resistant Staphylococcus aureus infected in mouse assessed as complete protection to mouse at MIC via tail vein relative to untreated control; type: functional, organism-based
# Staphylococcus = assay: Antibacterial activity against Staphylococcus; type: functional
# Streptococcus = assay: Antibacterial activity against Streptococcus; type: functional
# Moraxella catarrhalis = assay: Antimicrobial activity against Moraxella catarrhalis; type: functional
# Haemophilus influenzae = assay: Antimicrobial activity against Haemophilus influenzae; type: functional
# Listeria monocytogenes = assay: Antimicrobial activity against Listeria monocytogenes; type: functional
# Legionella pneumophila = assay: Antimicrobial activity against Legionella pneumophila; type: functional
# Neisseria sp. = assay: Antimicrobial activity against Neisseria species; type: functional
# Staphylococcus aureus [37] = assay: Antibacterial activity against methicillin-resistant Staphylococcus aureus SA-1417 infected in mouse assessed as protection of mouse; type: functional; settings: read-out: PD50
# Enterococcus = assay: Antibacterial activity against Enterococcus; type: functional
# Staphylococcus aureus [38] = assay: Antimicrobial activity against wild type Staphylococcus aureus; type: functional
# [39] = Cytotoxicity against human A549 cells assessed as cell viability recovery up to 407 uM by MTT assay relative to untreated control; type: cell-based; settings: read-out: Activity
# [40] = Cytotoxicity against human A549 cells assessed as cell viability recovery at 1.6 to 16 uM by MTT assay relative to untreated control; type: cell-based; settings: read-out: Activity
# [41] = Cytotoxicity against human A549 cells assessed as cell viability recovery at 41 to 410 uM by MTT assay relative to untreated control; type: cell-based; settings: read-out: Activity
SMILES,zone of inhibition at 5000 µg/mL (Staphylococcus aureus [1]),MIC (Staphylococcus aureus [2]),MBC50 (Staphylococcus aureus [3]),inhibition (Staphylococcus aureus [7]),solubility at 18 h [8],solubility at 18 h [9],logD [10],logD [11],inhibition (Staphylococcus aureus [16]),inhibition (Staphylococcus aureus [17]),fractional inhibitory concentration index (FICI) (Staphylococcus aureus [18]),Survival (Staphylococcus aureus [19]),Survival (Staphylococcus aureus [20]),permeability [21],permeability [22],Survival (Staphylococcus aureus [34]),other results
CCCCNc1nc(NCCCC)c2ccccc2n1,12 mm,0.37 µM,0.036 µM,inactive,,,,,,,,,,,,,viability [4]: > 50%; viability [5]: 100%; viability at up to 459 µM [6]: 58.8%
CC(C)Nc1nc(NC2CCCCC2)c2ccccc2n1,13 mm,3.5 µM,8.8 µM,inactive,≤ 30 µM,≥ 30 µM,4.69,3.56,Active,Active,0.1,40%,70%,783 ×10⁻⁶ cm/s,112 ×10⁻⁶ cm/s,,viability [12]: > 60%; viability at up to 8.8 µM [13]: > 100%; viability at 18 µM [14]: 98.6%; viability at 440 µM [15]: 70.3%
c1ccc(CNc2nc(NCc3ccccc3)c3ccccc3n2)cc1,13 mm,2.9 µM,inactive,inactive,≤ 10 µM,≥ 30 µM,3.82,2.82,Active,Active,0.12,50%,,383 ×10⁻⁶ cm/s,312 ×10⁻⁶ cm/s,69%,viability [23]: > 60%; viability at 1.5 µM [24]: 93.2%; viability at 370 µM [25]: 83.6%; MIC (Staphylococcus aureus [26]): > 590 µM; MIC (Staphylococcus aureus [27]): > 590 µM; MIC (Staphylococcus aureus [28]): > 590 µM; MIC (Staphylococcus aureus [29]): > 590 µM; MIC (Staphylococcus aureus [30]): > 590 µM; MIC (Staphylococcus aureus [31]): > 590 µM; MIC (Staphylococcus aureus [32]): > 590 µM; MIC (Staphylococcus aureus [33]): > 590 µM; Activity (Staphylococcus aureus [35]): Active; Activity (Staphylococcus aureus [36]): Active
Cc1c(N2CC[C@@H]([C@H](C)N)C2)c(F)cc2c(=O)[nH]c(=O)n(C3CC3)c12,,,,,,,,,,,,,,,,,MIC90 (Staphylococcus): 0.5 µg/mL; MIC90 (Streptococcus): 0.06 µg/mL; MIC90 (Moraxella catarrhalis): 0.5 µg/mL; MIC90 (Haemophilus influenzae): 0.5 µg/mL; MIC90 (Listeria monocytogenes): 0.5 µg/mL; MIC90 (Legionella pneumophila): 0.5 µg/mL; MIC90 (Neisseria sp.): 0.5 µg/mL; ED50 (Staphylococcus aureus [37]): 2.5 mg/kg; MIC (Enterococcus): 2 µg/mL
Cc1cc(NS(=O)(=O)c2ccc(N)cc2)no1 [SULFAMETHOXAZOLE],,,,,,,,,,,,,,,,,MIC (Staphylococcus aureus [38]): 2400 µM
CCCCNc1nc(NCc2ccccc2)c2ccccc2n1,12 mm,3.3 µM,0.98 µM,inactive,≤ 20 µM,≥ 30 µM,3.8,2.84,Active,Active,0.11,40%,70%,1250 ×10⁻⁶ cm/s,161 ×10⁻⁶ cm/s,69%,viability [39]: > 60%; viability at up to 16 µM [40]: > 100%; viability at up to 410 µM [41]: > 95%
